Tests used:
[1] = test system: IL10/Nox1^dKO mice; assay: Salubrinal treatment of spontaneous colitis in IL10/Nox1^dKO mice; assay type: in vivo
Text: All SPF-reared C57B1/6-IL10/Nox1^dKO mice developed spontaneously colitis at 6/7 weeks and disease activity index (DAI) scores which became more severe with age, including diarrhea, high incidence of rectal bleeding, change in body and colon weights, and prolapses. None of WT and single-KO mice developed colitis during the time frame studied. […] We next measured epithelial permeability of FITC-dextran in segments of distal colon and indigenous bacterial translocation was identified in the spleen of 7 and 12-week-old mice. […] Consistent with previous findings in patients with UC^30,31, IL10/Nox1^dKO mice expressed almost 50% of microRNAs relevant in defining UC signature.
(§1) To assess the pathogenic role of goblet cells in UC, WT and Nox1^KO mice were subjected to oral administration of DSS or rectal administration of TNBS. […] IRE1beta and ATF6alpha branch signaling were extended in colonic epithelial cells as evidenced by the increased XBP-1 mRNA splicing, the induction of GRP78, GRP94, PDI at both mRNA and protein levels, and dilated cisternae and gross distortion of the ER in goblet cells. […] Consistent with reduced eIF2α phosphorylation, increased expression of PPP1R15A/GADD34, a stress-inducible protein that recruits the catalytic subunit of protein phosphatase 1 and promotes elF2alpha dephosphorylation, was detected in agreement with our previous data in humans^1. EIF2alpha phosphorylation is cytoprotective during ERS, because cells are sensitized to cell death when this pathway is genetically ablated^33 and protected when it is ectopically enforced^34. To test whether a selective pharmacological inhibitor of GADD34-mediated elF2alpha dephosphorylation may alleviate colitis, IL10/Nox1^dKO mice were treated with 1 mg/kg salubrinal^35 for up to three weeks.

[2] = test system: GADD34-mediated elF2alpha dephosphorylation; assay: elF2alpha phosphorylation and ER stress markers in colonic mucosa of salubrinal-treated IL10/Nox1^dKO mice; assay type: in vivo
Text: as §1

[3] = IL10/Nox1^dKO mice, 1 mg/kg salubrinal for up to three weeks
[4] = salubrinal-treated IL10/Nox1^dKO mice, 1 mg/kg for up to three weeks

O=C(/C=C/c1ccccc1)NC(NC(=S)Nc1cccc2cccnc12)C(Cl)(Cl)Cl (stereo not drawn) [salubrinal, 3-phenyl-N-[2,2,2-trichloro-1-[[(8-quinolinylamino)thioxomethyl]amino]ethyl]-2-propenamide]
histological colitis score throughout the colon [1, 3]: strongly reduced | immune cell infiltration [1, 3]: markedly prevented | mucosal architecture and goblet cells [1, 3]: restored intact mucosal architecture with normal goblet cells | apoptosis of colonic mucosa ([1]; IL10/Nox1^dKO mice, 1 mg/kg salubrinal for up to three weeks, anti-apoptotic activity on CHOP expression): protected colonic mucosa against apoptosis | amount of colonic and splenic Treg cells [1, 4]: strongly decreased to baseline | levels of proinflammatory cytokines [1, 4]: strongly decreased to baseline | elF2alpha phosphorylation ([2]; colonic mucosa, IL10/Nox1^dKO mice, 1 mg/kg salubrinal for up to three weeks): robust elF2alpha phosphorylation | Grp78/Bip and Grp94 expression [2, 4]: trend toward reduced | localisation of salubrinal-induced phosphorylation of elF2alpha [2, 4]: mainly detected in colonic epithelial cells

From patent publication US20140031389A1, “SCREENING METHODS AND PHARMACEUTICAL COMPOSITIONS FOR THE TREATMENT OF INFLAMMATORY BOWEL DISEASES” (INSERM (INSTITUT NATIONAL DE LA SANTE ET DE LA RECHERCHE …, priority 2011, published 2014)
